Key:
Type in all cases: in vivo
[1] = test system: barnyardgrass (Echinochloa crus-galli); assay: Test A pre-/postemergence plant response
In short: (§1)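 Greenhouse trial, ~10 days. Soil (loam/sand) sprayed preemergence after seeding; emerged plants (1–2 leaf, 2–10 cm) sprayed postemergence in parallel. Response = visual injury vs untreated control, 0–100.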

[2] = test system: corn (Zea mays); assay: Test A pre-/postemergence plant response
In short: as §1

[3] = test system: morningglory (Ipomoea spp.); assay: Test A pre-/postemergence plant response
In short: as §1

[4] = test system: pigweed (Amaranthus retroflexus); assay: Test A pre-/postemergence plant response
In short: as §1

[5] = test system: giant foxtail (Setaria faberii); assay: Test A pre-/postemergence plant response
In short: as §1

[6] = test system: large crabgrass (Digitaria sanguinalis); assay: Test A pre-/postemergence plant response
In short: as §1

[7] = test system: wheat (Triticum aestivum); assay: Test A pre-/postemergence plant response
In short: as §1

[8] = test system: velvetleaf (Abutilon theophrasti); assay: Test A pre-/postemergence plant response
In short: as §1

[9] = test system: barnyardgrass (Echinochloa crus-galli); assay: Test B flooded paddy test; details: for Plant response rating, Flood, Barnyardgrass: 250 g ai/ha, flooded paddy test, visual rating on 0 to 100 scale (0 no effect, 100 complete control) after 13 to 15 days; for Plant response rating, Barnyardgrass: Flood (flooded paddy test), 13 to 15 days; for Barnyardgrass plant response rating: Flood, 31 g ai/ha, scale 0 to 100 (0 no effect, 100 complete control)
In short: (§2)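 Visual scores run from 0 (no effect) to 100 (complete control), assigned by comparison with controls 13 to 15 days after treatment. Test compounds went straight into water standing 3 cm above the soil, around plants at the 2-leaf stage kept in a greenhouse.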

[10] = test system: ducksalad (Heteranthera limosa); assay: Test B flooded paddy test; details: for Plant response rating, Flood, Ducksalad: 250 g ai/ha, flooded paddy test, visual rating on 0 to 100 scale (0 no effect, 100 complete control) after 13 to 15 days; for Plant response rating, Ducksalad: Flood (flooded paddy test), 13 to 15 days; for Ducksalad plant response rating: Flood, 31 g ai/ha, scale 0 to 100 (0 no effect, 100 complete control)
In short: as §2

[11] = test system: umbrella sedge (Cyperus difformis); assay: Test B flooded paddy test; details: for Plant response rating, Flood, Sedge, Umbrella: 250 g ai/ha, flooded paddy test, visual rating on 0 to 100 scale (0 no effect, 100 complete control) after 13 to 15 days; for Plant response rating, Sedge, Umbrella: Flood (flooded paddy test), 13 to 15 days; for Sedge, Umbrella plant response rating: Flood, 31 g ai/ha, scale 0 to 100 (0 no effect, 100 complete control)
In short: as §2

[12] = test system: rice (Oryza sativa); assay: Test B flooded paddy test; details: for Plant response rating, Flood, Rice: 250 g ai/ha, flooded paddy test, visual rating on 0 to 100 scale (0 no effect, 100 complete control) after 13 to 15 days; for Plant response rating, Rice: Flood (flooded paddy test), 13 to 15 days; for Rice plant response rating: Flood, 31 g ai/ha, scale 0 to 100 (0 no effect, 100 complete control)
In short: as §2

[13] = Postemergence, 125 g ai/ha, visual injury, 0 to 100 scale (0 no effect, 100 complete control), approx. ten days
[14] = Postemergence, 500 g ai/ha, 0 to 100 scale, 0 = no effect, 100 = complete control, approx. ten days
[15] = Preemergence, 125 g ai/ha, 0 to 100 scale, 0 = no effect, 100 = complete control
[16] = Preemergence, 500 g ai/ha, visual injury, 0 to 100 scale (0 no effect, 100 complete control), approx. ten days
[17] = 62 g ai/ha, scale 0 to 100, 0 is no effect, 100 is complete control
[18] = Postemergence, 125 g ai/ha, 0 to 100 scale where 0 is no effect and 100 is complete control
[19] = 62 g ai/ha, scale of 0 to 100 where 0 is no effect and 100 is complete control
[20] = 125 g ai/ha, scale 0 to 100, 0 is no effect, 100 is complete control
[21] = Postemergence, 500 g ai/ha, visual injury, 0 to 100 scale (0 no effect, 100 complete control), approx. ten days
[22] = Preemergence, 500 g ai/ha, 0 to 100 scale, 0 = no effect, 100 = complete control

Cc1ccc(-n2c(-c3ccccc3)ncc(C(=O)C3=C(O)CCCC3=O)c2=O)cc1C [Compound 32]
Barnyardgrass plant response rating [1, 13]: 20
Plant response rating, Barnyardgrass [1, 14]: 80
Plant response rating, Barnyardgrass [1, 15]: 0
Plant response rating, Barnyardgrass [1, 16]: 90
Corn plant response rating [2, 13]: 0
Plant response rating, Corn [2, 14]: 10
Plant response rating, Corn [2, 15]: 0
Plant response rating, Corn [2, 16]: 0
Morningglory plant response rating [3, 13]: 50
Plant response rating, Morningglory [3, 14]: 100
Plant response rating, Morningglory [3, 15]: 0
Plant response rating, Morningglory [3, 16]: 80
Pigweed plant response rating [4, 13]: 100
Plant response rating, Pigweed [4, 14]: 100
Plant response rating, Pigweed [4, 15]: 30
Plant response rating, Pigweed [4, 16]: 100
Foxtail, Giant plant response rating [5, 13]: 30
Plant response rating, Foxtail, Giant [5, 14]: 90
Plant response rating, Foxtail, Giant [5, 15]: 10
Plant response rating, Foxtail, Giant [5, 16]: 90
Crabgrass, Large plant response rating [6, 13]: 50
Plant response rating, Crabgrass, Large [6, 14]: 90
Plant response rating, Crabgrass, Large [6, 15]: 20
Plant response rating, Crabgrass, Large [6, 16]: 90
Wheat plant response rating [7, 13]: 0
Plant response rating, Wheat [7, 14]: 30
Plant response rating, Wheat [7, 15]: 0
Plant response rating, Wheat [7, 16]: 20
Velvetleaf plant response rating [8, 13]: 100
Plant response rating, Velvetleaf [8, 14]: 100
Plant response rating, Velvetleaf [8, 15]: 20
Plant response rating, Velvetleaf [8, 16]: 70
Plant response rating, Flood, Barnyardgrass [9]: 40
Plant response rating, Barnyardgrass [9, 17]: 10
Plant response rating, Flood, Ducksalad [10]: 95
Plant response rating, Ducksalad [10, 17]: 75
Plant response rating, Flood, Sedge, Umbrella [11]: 90
Plant response rating, Sedge, Umbrella [11, 17]: 75
Plant response rating, Flood, Rice [12]: 30
Plant response rating, Rice [12, 17]: 0

COCCCn1c(-c2cccc(Cl)c2)ncc(C(=O)C2=C(O)CCCC2=O)c1=O [Compound 143]
Plant response rating, Barnyardgrass [1, 18]: 70
Plant response rating, Barnyardgrass [1, 14]: 90
Plant response rating, Barnyardgrass [1, 15]: 40
Plant response rating, Barnyardgrass [1, 16]: 90
Plant response rating, Corn [2, 18]: 10
Plant response rating, Corn [2, 14]: 20
Plant response rating, Corn [2, 15]: 0
Plant response rating, Corn [2, 16]: 0
Plant response rating, Morningglory [3, 18]: 90
Plant response rating, Morningglory [3, 14]: 100
Plant response rating, Morningglory [3, 15]: 10
Plant response rating, Morningglory [3, 16]: 70
Plant response rating, Pigweed [4, 18]: 70
Plant response rating, Pigweed [4, 14]: 90
Plant response rating, Pigweed [4, 15]: 70
Plant response rating, Pigweed [4, 16]: 90
Plant response rating, Foxtail, Giant [5, 18]: 60
Plant response rating, Foxtail, Giant [5, 14]: 80
Plant response rating, Foxtail, Giant [5, 15]: 10
Plant response rating, Foxtail, Giant [5, 16]: 70
Plant response rating, Crabgrass, Large [6, 18]: 70
Plant response rating, Crabgrass, Large [6, 14]: 90
Plant response rating, Crabgrass, Large [6, 15]: 50
Plant response rating, Crabgrass, Large [6, 16]: 90
Plant response rating, Wheat [7, 18]: 0
Plant response rating, Wheat [7, 14]: 10
Plant response rating, Wheat [7, 15]: 0
Plant response rating, Wheat [7, 16]: 0
Plant response rating, Velvetleaf [8, 18]: 100
Plant response rating, Velvetleaf [8, 14]: 100
Plant response rating, Velvetleaf [8, 15]: 70
Plant response rating, Velvetleaf [8, 16]: 100
Plant response rating, Flood, Barnyardgrass [9]: 20
Plant response rating, Barnyardgrass [9, 19]: 0
Plant response rating, Barnyardgrass [9, 20]: 0
Barnyardgrass plant response rating [9]: 0
Plant response rating, Flood, Ducksalad [10]: 90
Plant response rating, Ducksalad [10, 19]: 80
Plant response rating, Ducksalad [10, 20]: 80
Ducksalad plant response rating [10]: 80
Plant response rating, Flood, Sedge, Umbrella [11]: 65
Plant response rating, Sedge, Umbrella [11, 19]: 0
Plant response rating, Sedge, Umbrella [11, 20]: 0
Sedge, Umbrella plant response rating [11]: 0
Plant response rating, Flood, Rice [12]: 0
Plant response rating, Rice [12, 19]: 0
Plant response rating, Rice [12, 20]: 0
Rice plant response rating [12]: 0

O=C1CCCC(O)=C1C(=O)c1cnc(-c2cc(F)cc(F)c2)n(CC2CCCCC2)c1=O [Compound 163]
Plant response rating, Barnyardgrass [1, 18]: 50
Barnyardgrass plant response rating [1, 21]: 100
Plant response rating, Barnyardgrass [1, 15]: 0
Plant response rating, Barnyardgrass [1, 22]: 20
Plant response rating, Corn [2, 18]: 0
Corn plant response rating [2, 21]: 20
Plant response rating, Corn [2, 15]: 0
Plant response rating, Corn [2, 22]: 0
Plant response rating, Morningglory [3, 18]: 10
Morningglory plant response rating [3, 21]: 100
Plant response rating, Morningglory [3, 15]: 0
Plant response rating, Morningglory [3, 22]: 0
Plant response rating, Pigweed [4, 18]: 80
Pigweed plant response rating [4, 21]: 100
Plant response rating, Pigweed [4, 15]: 0
Plant response rating, Pigweed [4, 22]: 60
Plant response rating, Foxtail, Giant [5, 18]: 20
Foxtail, Giant plant response rating [5, 21]: 50
Plant response rating, Foxtail, Giant [5, 15]: 0
Plant response rating, Foxtail, Giant [5, 22]: 10
Plant response rating, Crabgrass, Large [6, 18]: 60
Crabgrass, Large plant response rating [6, 21]: 90
Plant response rating, Crabgrass, Large [6, 15]: 0
Plant response rating, Crabgrass, Large [6, 22]: 10
Plant response rating, Wheat [7, 18]: 0
Wheat plant response rating [7, 21]: 0
Plant response rating, Wheat [7, 15]: 0
Plant response rating, Wheat [7, 22]: 0
Plant response rating, Velvetleaf [8, 18]: 100
Velvetleaf plant response rating [8, 21]: 100
Plant response rating, Velvetleaf [8, 15]: 10
Plant response rating, Velvetleaf [8, 22]: 50
Plant response rating, Barnyardgrass [9, 20]: 0
Barnyardgrass plant response rating [9]: 0
Plant response rating, Ducksalad [10, 20]: 60
Ducksalad plant response rating [10]: 30
Plant response rating, Sedge, Umbrella [11, 20]: 70
Sedge, Umbrella plant response rating [11]: 70
Plant response rating, Rice [12, 20]: 20
Rice plant response rating [12]: 10

COc1ccc(-n2c(-c3cccc(Cl)c3)ncc(C(=O)C3=C(O)CCCC3=O)c2=O)cc1 [Compound 151]
Plant response rating, Barnyardgrass [1, 18]: 60
Plant response rating, Barnyardgrass [1, 14]: 90
Plant response rating, Barnyardgrass [1, 15]: 20
Plant response rating, Barnyardgrass [1, 16]: 100
Plant response rating, Corn [2, 18]: 0
Plant response rating, Corn [2, 14]: 10
Plant response rating, Corn [2, 15]: 0
Plant response rating, Corn [2, 16]: 0
Plant response rating, Morningglory [3, 18]: 40
Plant response rating, Morningglory [3, 14]: 100
Plant response rating, Morningglory [3, 16]: 30
Plant response rating, Pigweed [4, 18]: 100
Plant response rating, Pigweed [4, 14]: 100
Plant response rating, Pigweed [4, 15]: 50
Plant response rating, Pigweed [4, 16]: 70
Plant response rating, Foxtail, Giant [5, 18]: 20
Plant response rating, Foxtail, Giant [5, 14]: 70
Plant response rating, Foxtail, Giant [5, 15]: 20
Plant response rating, Foxtail, Giant [5, 16]: 60
Plant response rating, Crabgrass, Large [6, 18]: 30
Plant response rating, Crabgrass, Large [6, 14]: 70
Plant response rating, Crabgrass, Large [6, 15]: 10
Plant response rating, Crabgrass, Large [6, 16]: 50
Plant response rating, Wheat [7, 18]: 0
Plant response rating, Wheat [7, 14]: 20
Plant response rating, Wheat [7, 15]: 0
Plant response rating, Wheat [7, 22]: 20
Plant response rating, Velvetleaf [8, 18]: 100
Plant response rating, Velvetleaf [8, 14]: 100
Plant response rating, Velvetleaf [8, 15]: 50
Plant response rating, Velvetleaf [8, 22]: 70
Plant response rating, Flood, Barnyardgrass [9]: 55
Plant response rating, Barnyardgrass [9, 19]: 15
Plant response rating, Barnyardgrass [9, 20]: 30
Barnyardgrass plant response rating [9]: 0
Plant response rating, Flood, Ducksalad [10]: 100
Plant response rating, Ducksalad [10, 19]: 80
Plant response rating, Ducksalad [10, 20]: 100
Ducksalad plant response rating [10]: 80
Plant response rating, Flood, Sedge, Umbrella [11]: 100
Plant response rating, Sedge, Umbrella [11, 19]: 85
Plant response rating, Sedge, Umbrella [11, 20]: 100
Sedge, Umbrella plant response rating [11]: 85
Plant response rating, Flood, Rice [12]: 50
Plant response rating, Rice [12, 19]: 0
Plant response rating, Rice [12, 20]: 15
Rice plant response rating [12]: 20

— patent US8952024B2, “Herbicidal pyrimidone derivatives” (E I du Pont de Nemours and Company, priority 2009, dated 2015)
